Here are results for six compounds from PMC7096398, “Oxytocin Receptors Regulate Social Preference in Zebrafish” (Scientific Reports, 2020).

“And” between values parts separate entries of the source, which are not always exact repeats. Identical values can stand only once. Like-named read-outs stand apart in the source and are kept apart here. Positions of bridges follow the written chain, without caps; N, C: chain ends. Residues, ends and D or L forms follow the SMILES beside them.

The subject of one test is zebrafish. The arrangement: method as in 4 sources, ref 42 = [42]; PMID 21956239; doi:10.1007/s00213-011-2482-2; 42. Braida D Neurohypophyseal hormones manipulation modulate social and anxiety-related behavior in zebrafish Psychopharmacology (Berl) 2012 220 319 330 10.1007/s00213-011-2482-2 21956239 ||| ref 44 = [44]; PMID 27247142; doi:10.1016/j.bbr.2016.05.059; 44. Zimmermann FF Gaspary KV Siebel AM Bonan CD Oxytocin reversed MK-801-induced social interaction and aggression deficits in zebrafish Behav Brain Res 2016 311 368 374 10.1016/j.bbr.2016.05.059 2724 ||| ref 51 = [51]; doi:10.1163/1568539x-00003261; 51. Lindeyer CM Langen EMA Swaney WT Reader SM Nonapeptide influences on social behaviour: effects of vasotocin and isotocin on shoaling and interaction in zebrafish Behaviour 2015 152 897 915 10.1163 ||| ref 27 = [27]; PMID 26347614; doi:10.3389/fncir.2015.00039; 27. Dreosti E Lopes G Kampff AR Wilson SW Development of social behavior in young zebrafish Front Neural Circuits 2015 9 39 10.3389/fncir.2015.00039 26347614 PMC4539524. The conditions noted are these: cited from earlier work. From the text:
Thus far, dopamine[56] and serotonin[57] in the mesolimbic system and excitation-inhibition balance[58] seem to play a prominent role in social investigation in rodents. Similarly, levels of dopamine and serotonin are modulated in socially interacting fish[59]–[61] and social preference behaviour decreases after treatment with a dopamine D1 receptor antagonist. […] In rodents, release of ... || (+ 1 further places)

A further test concerns the target T1, Oxtr (Danio rerio, UniProt E4W699).
T1 construct: host or cells: HEK293
T1 sequence (E4W699 1-388): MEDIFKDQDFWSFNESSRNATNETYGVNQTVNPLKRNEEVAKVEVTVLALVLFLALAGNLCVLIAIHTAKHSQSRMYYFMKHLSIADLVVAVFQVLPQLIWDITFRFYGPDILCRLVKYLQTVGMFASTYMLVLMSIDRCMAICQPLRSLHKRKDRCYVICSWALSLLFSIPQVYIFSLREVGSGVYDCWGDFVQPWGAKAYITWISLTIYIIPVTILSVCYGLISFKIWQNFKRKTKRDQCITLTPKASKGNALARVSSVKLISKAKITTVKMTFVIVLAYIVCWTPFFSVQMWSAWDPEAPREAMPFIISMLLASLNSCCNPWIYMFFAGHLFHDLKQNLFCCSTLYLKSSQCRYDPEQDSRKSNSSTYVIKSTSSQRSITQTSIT
Description: Inositol phosphate accumulation assay, agonist potency at Oxtr. It counts as cell-based, zebrafish. How it is done: (§1) The receptor constructs were ordered from GeneScript and subcloned into a pcDNA3.1/CT-GFP-TOPO vector. The coding sequences of the GenBank entries NM_001199370.1 (oxtr), NM_001199369.1 (oxtrl), NM_001301114.1 (avpr1aa), and NM_001297676.1 (avpr1ab) were used for synthesis. The stop codons were removed, and an additional […] was added to facilitate hybrid protein expression with GFP in frame from the vector. The GCCACC Kozak sequence was inserted before the start codons. After transformation of the plasmid constructs into TOP10 competent cells (Thermo Fisher Scientific), the Maxiprep (Thermo Fisher Scientific) method was used to amplify the plasmids for transfection.
(§2) The Inositol phosphate accumulation assay was performed according to previous descriptions to measure the potency of different ligands for zebrafish different oxytocin related receptors. Each receptor construct was transfected into HEK293 cells using Lipofectamine 2000 (Thermo Fisher Scientific). Myo2-^3H-inositol (PerkinElmer) at 3 μCi/mL was added the day after transfection. On day three, cells were re-suspended in assay buffer (10 mM LiCl, 20 mM HEPES, 137 mM NaCl, 5 mM KCl, 0.44 mM KH2PO4, 4.2 mM NaHCO3, 1.2 mM MgCl2, 1 mM CaCl2, and 10 mM glucose), after incubation in a PBS/EDTA mixture (0.2 g/L). After 10 minutes of pre-incubation at 37 °C, the cells were stimulated with serial dilution of peptides for 25 minutes at 37 °C. […] Cells were lysed for 60 minutes at 4 °C with an equal volume of 0.8 M perchloric acid, and then neutralised with KOH/KHCO3 solution. Ion exchange chromatography on AG 1-X8 resin (Bio-Rad) was used to collect the generated ^3H-inositol phosphates. The resin was washed with buffer containing 5 mM Na2B4O7 and 60 mM NH4-formate and eluted with buffer containing 1 M NH4-formate and 0.1 M formic acid. Samples were mixed with OptiPhase HiSafe (PerkinElmer Waltham, MA, USA) and ^3H radioactivity was measured with a Tri-Carb 2910TR liquid scintillation counter (PerkinElmer Waltham, MA, USA). The assays were performed in duplicate for each concentration and repeated at least 3 times.

Another test has as its target T2, Oxtrl (Danio rerio, UniProt E4W698).
T2 construct: host or cells: HEK293
T2 sequence (E4W698 1-382): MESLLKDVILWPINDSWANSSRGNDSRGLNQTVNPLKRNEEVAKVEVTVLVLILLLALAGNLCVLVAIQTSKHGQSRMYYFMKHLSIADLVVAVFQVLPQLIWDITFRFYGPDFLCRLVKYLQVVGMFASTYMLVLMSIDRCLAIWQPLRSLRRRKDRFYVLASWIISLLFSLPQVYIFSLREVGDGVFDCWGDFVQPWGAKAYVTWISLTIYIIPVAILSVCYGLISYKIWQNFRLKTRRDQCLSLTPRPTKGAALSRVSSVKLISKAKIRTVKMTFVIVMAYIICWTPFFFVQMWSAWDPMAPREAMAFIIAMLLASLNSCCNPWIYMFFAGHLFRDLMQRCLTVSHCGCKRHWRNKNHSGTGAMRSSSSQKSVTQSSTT
Description: Inositol phosphate accumulation assay, agonist potency at Oxtrl. It counts as cell-based, zebrafish. As for the experimental part: as §1, §2

The target of a further test is T3, Avpr1ab (Danio rerio, UniProt A0A8M1P6E3).
T3 sequence (A0A8M1P6E3 1-410): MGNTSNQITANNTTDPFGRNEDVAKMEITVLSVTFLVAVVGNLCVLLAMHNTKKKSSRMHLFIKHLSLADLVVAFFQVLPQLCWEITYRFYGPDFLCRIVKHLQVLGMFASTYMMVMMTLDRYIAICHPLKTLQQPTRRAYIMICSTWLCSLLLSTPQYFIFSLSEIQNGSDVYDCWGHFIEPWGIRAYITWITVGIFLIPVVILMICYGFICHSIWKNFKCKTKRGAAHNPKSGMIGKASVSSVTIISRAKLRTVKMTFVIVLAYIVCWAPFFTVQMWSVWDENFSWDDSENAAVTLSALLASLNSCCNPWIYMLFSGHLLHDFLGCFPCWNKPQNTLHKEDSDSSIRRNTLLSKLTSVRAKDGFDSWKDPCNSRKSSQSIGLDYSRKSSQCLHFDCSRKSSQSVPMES
As to the kind of experiment: Inositol phosphate accumulation assay, agonist potency at Avpr1ab. In kind it is cell-based, zebrafish. As for the experimental part:
as §1, §2

The target of the next test is T4, Avpr1aa (Danio rerio, UniProt A0A8M1P1H3).
T4 sequence (A0A8M1P1H3 1-379): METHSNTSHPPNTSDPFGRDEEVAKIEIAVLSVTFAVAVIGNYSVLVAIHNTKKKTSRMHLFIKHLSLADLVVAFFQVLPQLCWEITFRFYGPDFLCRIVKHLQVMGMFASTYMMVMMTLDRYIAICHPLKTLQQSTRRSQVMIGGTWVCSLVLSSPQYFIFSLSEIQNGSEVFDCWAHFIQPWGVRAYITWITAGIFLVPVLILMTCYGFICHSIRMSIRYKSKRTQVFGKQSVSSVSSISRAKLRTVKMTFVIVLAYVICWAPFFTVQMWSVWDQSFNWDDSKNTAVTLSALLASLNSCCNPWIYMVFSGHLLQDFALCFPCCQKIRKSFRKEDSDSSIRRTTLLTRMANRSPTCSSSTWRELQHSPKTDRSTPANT
As to the kind of experiment: Inositol phosphate accumulation assay, agonist potency at Avpr1aa. It counts as cell-based, zebrafish. How it is done: as §1, §2

Setting [1] is: read-out: Potency (EC50) at Oxtrl.
[2] abbreviates: HEK293 cells transfected with zebrafish Avpr1ab, 3H-inositol phosphate accumulation, 10 min pre-incubation, 25 min stimulation, 37 °C, duplicates, table: mean ± SEM, n = 3, read-out: Potency (EC50) at Avpr1ab.
Where [3] appears, read: HEK293 cells transfected with zebrafish Avpr1aa, 3H-inositol phosphate accumulation, 10 min pre-incubation, 25 min stimulation, 37 °C, duplicates, table: mean ± SEM, n = 3 (zOT n = 4), read-out: Potency (EC50) at Avpr1aa.

Turning to `C[C@]12N[C@H](Cc3ccccc31)c1ccccc12` [MK-801], the Social preference deficits result in the test with zebrafish (zebrafish) was “deficits in social preference induced”.

A word on the EC50: it is the midpoint of the concentration-response curve. As for `CC[C@H](C)[C@@H]1NC(=O)[C@H](Cc2ccc(O)cc2)NC(=O)[C@@H](N)CSSC[C@@H](C(=O)N2CCC[C@H]2C(=O)N[C@@H](CCCNC(=N)N)C(=O)NCC(N)=O)NC(=O)[C@H](CC(N)=O)NC(=O)[C@H](CCC(N)=O)NC1=O` [zVP] (H-CYIQNCPRG-NH2; disulfide 1-6), the half-maximal effective concentration (EC50) on Oxtr was 11 ± 3 nM; at Oxtrl it was 27 ± 9.5 nM; on Avpr1ab, 2.79 ± 1.4 nM; on Avpr1aa, > 317 nM and 727 nM.

Consider `CC[C@H](C)[C@@H]1NC(=O)[C@H](Cc2ccc(O)cc2)NC(=O)[C@@H](N)CSSC[C@@H](C(=O)N2CCC[C@H]2C(=O)N[C@@H](CC(C)C)C(=O)NCC(N)=O)NC(=O)[C@H](CC(N)=O)NC(=O)[C@H](CCC(N)=O)NC1=O` [OT], for which the half-maximal effective concentration (EC50) is 20 to 50 nM and 47.9 nM at Oxtr; 20 to 50 nM and 34.8 nM on Oxtrl (setting [1]); 20 to 50 nM and 42.1 nM at Avpr1ab (setting [2]); 20 to 50 nM and 21.5 nM on Avpr1aa (setting [3]).

On to `CC[C@H](C)[C@@H]1NC(=O)[C@H](Cc2ccc(O)cc2)NC(=O)[C@@H](N)CSSC[C@@H](C(=O)N2CCC[C@H]2C(=O)N[C@H](C(=O)NCC(N)=O)[C@@H](C)CC)NC(=O)[C@H](CC(N)=O)NC(=O)[C@H](CO)NC1=O` [zOT] (H-CYISNCPIG-NH2; disulfide 1-6), for which the EC50 on Oxtr (HEK293 cells transfected with zebrafish Oxtr, 3H-inositol phosphate accumulation, 10 min pre-incubation, 25 min stimulation, 37 °C, duplicates, table: mean ± SEM, n = 3, read-out: Potency (EC50) at Oxtr) worked out at 2.99 ± 0.93 nM; at Oxtrl (setting [1]), 3.14 ± 1.1 nM; at Avpr1ab (setting [2]) it was 3.52 ± 0.94 nM; at Avpr1aa (setting [3]) it was 317 ± 79 nM.

carbetocin: the “Social deficits following MK-801 exposure” value in the test with zebrafish (zebrafish exposed to glutamate antagonist MK-801) is recorded as “rescued social deficits”.

For the compound `CCO` [ethanol], the “Social preference, developing zebrafish” value in the test on zebrafish (high concentrations) is “inhibit social preference”.
